From patent publication US20220054559A1, “COMPOSITIONS AND METHODS FOR ENHANCING EXERCISE ENDURANCE” (PRESIDENT AND FELLOWS OF HARVARD COLLEGE, priority 2019, published 2022)
Entries after “also recorded” stand apart in the source; their conditions may differ.

How the values were obtained:
Assay type in all cases: in vivo, mouse
[1] = 13C3-lactate flux tracing after tail-vein injection (LC-MS)
Method: It was next determined whether systemic lactate is capable of crossing the epithelial barrier into the gut lumen. […] At sacrifice, serum and plasma were immediately collected following cardiac puncture, and intestinal luminal contents were collected by removing the colon and cecum from the mice and gently sampling the inner surface of the tissue.
20% w/w ^13C3 sodium lactate (Cambridge Isotope Laboratories™) was diluted with PBS to a concentration of 400 mM in PBS. […] […] […] Whole blood was divided into two samples to obtain both serum and plasma, which was flash frozen in liquid nitrogen and stored at −80° C.
Immediately following cardiac puncture, mice were dissected to remove colon and cecum, and the contents were removed by squeezing with sterilized forceps into pre-weighed tubes. Contents were immediately flash frozen in liquid nitrogen. […]
Samples were analyzed for lactate and propionate by a Metabolomics Platform. LC-MS metabolomics were performed as previously described. 23 LC-MS traces were identified and integrated to quantify presence of ^13C0- and ^13C3-lactate isotopes.

mice = assay: Colorectal propionate instillation, treadmill run to exhaustion; conditions: 200 μL 150 mM sodium propionate in PBS into the colon 30 minutes prior to exercise, n=8, P=0.03
Method: (§1) Treadmilling followed the same protocol as above. Mice were fasted 7 hours prior to exercise, to normalize metabolic profiles. 30 minutes prior to exercise, mice were treated with 200 μL of either PBS vehicle alone (n=8) or 150 mM sodium propionate in PBS (n=8) using a flexible gavage needle to introduce 200 μL of solution into the colon. Mice were run to exhaustion as above. This protocol was repeated for 3 consecutive days. On the first day of treatment, serum was collected 40 minutes post-exhaustion via tail-vein bleed and measured using the Ciraplex™ multiplex mouse cytokine assay (Aushon BioSystems™)

inflammatory cytokines = assay: Serum inflammatory cytokines after treadmill run, intrarectal propionate; conditions: serum taken 40 minutes after treadmill running, intrarectal propionate versus vehicle
Method: as §1

[2] = 100 μL of 400 mM intravenously via tail vein, sacrifice 12 minutes after injection, LC-MS

SMILES	13C3-labelled lactate detected in tissues [1, 2]	13C3-labelled propionate detected in tissues [1, 2]	earliest time at which serum lactate levels returned to baseline after tail-vein injection ([1]; tail-vein injection) [min]	treadmill runtime versus pH-matched placebo vehicle (mice)	serum inflammatory cytokine levels (inflammatory cytokines)
[13CH3][13CH](O)[13C](=O)[O-].[Na+] (centres unmarked) [^13C3 sodium lactate]	present in both the serum and plasma as well as in the lumen of the colons and ceca	No ^13C3-labelled propionate was detected in these tissues	12	–	–
CCC(=O)[O-].[Na+] [propionate, sodium propionate]	–	–	–	increased treadmill runtime; also recorded: improves maximum run time	no significant differences in cytokine levels were found
